Measured values as given in patent publication US20260226493A1, “HERBICIDE RESISTANT PLANTS” (SYNGENTA CROP PROTECTION AG, priority 2023, published 2026).
“And” between values parts separate entries of the source, which are not always exact repeats. Equal values may be shown once.

What was measured:
[1] = molecular target: T1, Arabidopsis thaliana BIO3-BIO1 (BioDA) mutants (Arabidopsis thaliana, UniProt B0F481, A507K); assay: BIO3-BIO1 mutant enzyme activity in the presence of herbicide, percentage inhibition (fluorometric DAPA assay); type: biochemical; conditions: read-out: percentage inhibition
T1 construct: with the predicted N-terminal mitochondrial transit peptide removed; 6xHis-tag (N); thrombin cleavage site (N); made in house; host or cells: E. coli BL21 (DE3) bioA
Method in brief: (§1)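 His-tagged Arabidopsis BIO3-BIO1 mutants, expressed in E. coli and purified by IMAC and SEC, were preincubated at 50 nM with herbicide for 10 min at 20 °C in EPPS pH 8.6 with pyridoxal phosphate. Reaction with 100 μM spermidine and 20 μM KAPA ran 75 min at 20 °C; DAPA was derivatised with o-phthalaldehyde and read at ex 410/em 470 nm. […].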

[2] = molecular target: T2, Arabidopsis thaliana BIO3-BIO1 (BioDA) mutants (Arabidopsis thaliana, UniProt B0F481, A507S); assay: as above; type: biochemical; conditions: read-out: percentage inhibition
T2 construct: with the predicted N-terminal mitochondrial transit peptide removed; 6xHis-tag (N); thrombin cleavage site (N); made in house; host or cells: E. coli BL21 (DE3) bioA
Method in brief: as §1

[3] = molecular target: T3, Arabidopsis thaliana BIO3-BIO1 (BioDA) mutants (Arabidopsis thaliana, UniProt B0F481, DEL508-508); assay: as above; type: biochemical; conditions: read-out: percentage inhibition
T3 construct: with the predicted N-terminal mitochondrial transit peptide removed; 6xHis-tag (N); thrombin cleavage site (N); made in house; host or cells: E. coli BL21 (DE3) bioA
Method in brief: as §1

Wildtype Samsun tobacco = assay: Visual herbicide damage score on wild-type tobacco plants after spraying; type: in vivo; conditions: for percentage of damage: 600 gai/ha, one WT plant
Excerpt: (§2) Populations of transgenic tobacco comprising 20-30 transgenic events per plant transformation constructs were generated as described in Example 1. These lines were clonally propagated and 1 clone per event was sprayed with 600 g ai/ha compound L or A+0.2% Genapol X080 with a spray volume of 200 L/Ha (“g ai/ha” refers to grams of active compound per hectare).
A score of 0 indicates no visible damage or stunting whereas a score of 100 indicates a complete death of the plant. 20 transgenic events (i.e. individual transgenic plants) from each GM tobacco line were transplanted to soil 1 week prior to spraying with BIO3-BIO1inhibiting compounds. WT tobacco was included as a control. […]

[4] = system: D4597 (Arabidopsis thaliana BIO3-BIO1 G700S) containing tobacco plants; assay: Visual herbicide damage score on transgenic tobacco D4597 (pCMP AtBioDA G700S); type: in vivo; conditions: 600 gai/ha; 7 DAT; each table row is one D4597 transgenic plant
Excerpt: as §2
(§3) Herbicidal damage was visually assessed across the population and a herbicide damage score given at 7, 14 and 21 days. A score of 0 indicates no visible damage or stunting whereas a score of 100 indicates a complete death of the plant. 20 transgenic events (i.e. individual transgenic plants) from each GM tobacco line were transplanted to soil 1 week prior to spraying with BIO3-BIO1inhibiting compounds. WT tobacco was included as a control.
(§4) To determine if overexpression of variants detailed in Example 7 confer resistance to BIO3-BIO1 inhibiting compounds when expressed in plants, GM tobacco lines were produced using the methods in Example 1 and tested with BIO3-BIO1 inhibiting compounds.
(§5) Transgenic tobacco plants expressing the Arabidopsis thaliana BIO3-BIO1 variants C388D (SEQ ID NO:26), P421L(SEQ ID NO:41), F348C (SEQ ID NO:28), G700S (SEQ ID NO:39), W392S (SEQ ID NO:70) and the Zea mays BIO3-BIO1 variant C372D (SEQ ID NO:324). Populations of transgenic tobacco were sprayed and assessed as in Example 2

[5] = system: D4604 (Arabidopsis thaliana BIO3-BIO1 W392S) containing tobacco plants; assay: Visual herbicide damage score on transgenic tobacco D4604 (pCMP AtBioDA W392S); type: in vivo; conditions: 600 gai/ha, each table row is one D4604 transgenic plant
Excerpt: as §2, §3, §4, §5

[6] = system: D4586 (Zea mays BIO3-BIO1 C372D) containing tobacco plants; assay: Visual herbicide damage score on transgenic tobacco D4586 (pCMP ZmBioDA C372D); type: in vivo; conditions: 600 gai/ha; 7 DAT; each table row is one D4586 transgenic plant
Excerpt: as §2, §3, §4, §5

T1 sequence (B0F481 23-833 A507K): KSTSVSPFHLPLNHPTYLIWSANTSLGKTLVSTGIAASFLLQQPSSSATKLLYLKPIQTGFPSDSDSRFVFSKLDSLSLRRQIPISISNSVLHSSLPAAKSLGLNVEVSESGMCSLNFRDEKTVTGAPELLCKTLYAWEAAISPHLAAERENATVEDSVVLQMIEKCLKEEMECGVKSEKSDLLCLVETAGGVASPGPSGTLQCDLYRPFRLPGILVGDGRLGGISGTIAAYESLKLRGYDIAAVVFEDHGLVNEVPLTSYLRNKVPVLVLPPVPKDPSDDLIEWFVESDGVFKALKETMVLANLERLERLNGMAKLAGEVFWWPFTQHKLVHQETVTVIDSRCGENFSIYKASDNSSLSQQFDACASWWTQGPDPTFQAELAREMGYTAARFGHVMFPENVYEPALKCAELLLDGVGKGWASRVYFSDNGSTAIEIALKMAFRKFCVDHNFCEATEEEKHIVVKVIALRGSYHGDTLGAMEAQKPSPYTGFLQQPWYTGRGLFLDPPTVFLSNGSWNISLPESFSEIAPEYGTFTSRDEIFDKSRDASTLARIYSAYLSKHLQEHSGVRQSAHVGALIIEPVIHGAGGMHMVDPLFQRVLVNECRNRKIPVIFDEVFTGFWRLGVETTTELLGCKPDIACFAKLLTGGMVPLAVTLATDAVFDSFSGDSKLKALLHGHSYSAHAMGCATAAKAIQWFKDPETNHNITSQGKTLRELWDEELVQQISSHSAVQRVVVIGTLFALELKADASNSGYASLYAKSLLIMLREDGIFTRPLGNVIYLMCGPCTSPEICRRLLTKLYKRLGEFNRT
T2 sequence (B0F481 23-833 A507S): as the sequence (B0F481 23-833 A507K) above, with K485S counted along it
T3 sequence (B0F481 other isoform, or with tags, fused parts or gaps DEL508-508): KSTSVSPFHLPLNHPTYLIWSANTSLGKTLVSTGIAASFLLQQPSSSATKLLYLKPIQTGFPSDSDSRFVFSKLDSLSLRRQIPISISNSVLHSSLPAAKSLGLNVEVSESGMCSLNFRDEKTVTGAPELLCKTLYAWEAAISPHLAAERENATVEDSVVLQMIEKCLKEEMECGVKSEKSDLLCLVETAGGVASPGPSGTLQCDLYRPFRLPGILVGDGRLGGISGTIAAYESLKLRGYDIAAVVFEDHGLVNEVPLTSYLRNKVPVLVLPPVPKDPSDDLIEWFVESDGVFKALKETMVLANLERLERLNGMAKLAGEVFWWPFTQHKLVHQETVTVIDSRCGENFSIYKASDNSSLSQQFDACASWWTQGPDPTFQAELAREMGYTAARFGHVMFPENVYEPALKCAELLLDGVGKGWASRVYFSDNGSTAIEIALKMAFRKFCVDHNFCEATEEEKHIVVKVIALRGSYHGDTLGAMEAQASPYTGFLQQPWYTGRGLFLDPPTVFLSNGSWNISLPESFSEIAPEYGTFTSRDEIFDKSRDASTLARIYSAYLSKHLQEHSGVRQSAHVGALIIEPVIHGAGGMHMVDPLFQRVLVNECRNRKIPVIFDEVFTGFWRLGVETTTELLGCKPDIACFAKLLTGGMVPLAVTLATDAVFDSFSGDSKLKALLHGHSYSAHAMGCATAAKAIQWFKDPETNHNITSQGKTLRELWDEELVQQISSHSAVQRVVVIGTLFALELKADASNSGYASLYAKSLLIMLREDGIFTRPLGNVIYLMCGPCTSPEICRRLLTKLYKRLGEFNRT

SMILES | inhibition at 1 µM [1] | inhibition at 1 µM [2] | inhibition at 1 µM [3] | percentage of damage (Wildtype Samsun tobacco; 7 DAT) | percentage of damage (Wildtype Samsun tobacco; 14 DAT) | percentage of damage (Wildtype Samsun tobacco; 21 DAT) | growth of representative wild type tobacco plant after treatment (photograph, FIG. 6) (Wildtype Samsun tobacco; compound L 600 gai/ha, 28 days post treatment, compared to Event 8307 (pBin TMV EcBioA) and Event 8402 (pBin TMV MTP EcBioA)) | percentage of damage [4] | percentage of damage ([5]; 14 DAT) | percentage of damage ([5]; 21 DAT) | percentage of damage [6]
CCOC(=O)c1nn(-c2ccc3c(c2)OC(F)(F)C(F)(F)O3)c2cccc(C(C)=O)c2c1=O [Compound A, ethyl 5-acetyl-4-oxo-1-(2,2,3,3-tetrafluoro-1,4-benzodioxin-6-yl)cinnoline-3-carboxylate] | 81% | 63% | 22% |  |  |  |  |  |  |  | 
CCn1c(Cn2ccc(C(F)(F)F)n2)cc(=O)c(C(=O)O)c1-c1ccc(Cl)c(Cl)c1 [Compound L, 2-(3,4-dichlorophenyl)-1-ethyl-4-oxo-6-[[3-(trifluoromethyl)pyrazol-1-yl]methyl]pyridine-3-carboxylic acid] |  |  |  | 55% and 40% and 45% and 50% | 80% (2×) and 85% and 75% | 90% and 75% and 85% | significantly stunted growth | 10% | 70% | 80% | 10%
